From ChEMBL document CHEMBL3351570, “Design and synthesis of 2-phenylnaphthalenoids as inhibitors of DNA topoisomeraseIIα and antitumor agents” (Eur J Med Chem, 2014)
Activity calls are given as the source filed them. No cut-off for these calls is given here.

How the values were obtained:
MDA-MB-231 [1] = assay: Cytotoxicity against human MDA-MB-231 cells after 72 hrs by sulforhodamine B assay; format: functional, cell-based; details: MDA-MB-231, 72 h
A549 = assay: Cytotoxicity against human A549 cells after 72 hrs by sulforhodamine B assay; format: functional, cell-based; details: A549, 72 h
HeLa = assay: Cytotoxicity against human HeLa cells after 72 hrs by sulforhodamine B assay; format: functional, cell-based
[2] = biological target: T1, DNA topoisomerase (Bos taurus) (UniProt A0JN73); assay: Inhibition of calf thymus DNA topoisomerase 1 assessed as reduction in pBR322 DNA relaxation at 100 uM incubated for 30 mins by DNA gel electrophoresis
T1 sequence (whole entry): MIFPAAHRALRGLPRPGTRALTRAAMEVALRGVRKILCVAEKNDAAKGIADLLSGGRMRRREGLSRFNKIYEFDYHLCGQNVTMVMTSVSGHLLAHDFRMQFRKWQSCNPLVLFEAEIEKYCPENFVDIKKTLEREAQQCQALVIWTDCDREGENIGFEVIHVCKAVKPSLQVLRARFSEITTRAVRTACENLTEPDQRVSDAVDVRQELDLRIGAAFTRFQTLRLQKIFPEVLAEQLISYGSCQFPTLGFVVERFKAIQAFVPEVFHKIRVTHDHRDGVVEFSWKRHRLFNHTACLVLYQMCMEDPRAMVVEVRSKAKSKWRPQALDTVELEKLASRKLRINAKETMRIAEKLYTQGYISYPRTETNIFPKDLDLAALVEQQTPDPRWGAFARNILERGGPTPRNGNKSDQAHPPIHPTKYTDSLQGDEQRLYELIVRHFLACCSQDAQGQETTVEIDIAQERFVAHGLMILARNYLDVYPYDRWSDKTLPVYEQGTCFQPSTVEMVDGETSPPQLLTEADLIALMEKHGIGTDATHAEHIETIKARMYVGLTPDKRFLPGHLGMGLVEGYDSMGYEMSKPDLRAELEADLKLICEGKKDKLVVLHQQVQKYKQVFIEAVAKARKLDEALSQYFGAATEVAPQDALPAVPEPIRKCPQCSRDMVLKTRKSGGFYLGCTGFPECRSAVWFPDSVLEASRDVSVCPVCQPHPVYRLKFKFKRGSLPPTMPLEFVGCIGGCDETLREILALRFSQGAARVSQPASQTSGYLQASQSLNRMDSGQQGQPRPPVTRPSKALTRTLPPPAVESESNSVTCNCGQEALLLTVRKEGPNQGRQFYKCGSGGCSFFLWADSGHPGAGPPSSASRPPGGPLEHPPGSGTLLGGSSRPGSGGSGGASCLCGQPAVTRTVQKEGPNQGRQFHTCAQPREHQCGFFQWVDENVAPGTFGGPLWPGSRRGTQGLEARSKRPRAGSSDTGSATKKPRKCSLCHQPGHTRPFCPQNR

[3] = biological target: DNA topoisomerase 2-alpha (Homo sapiens) (UniProt P11388); assay: Inhibition of human recombinant topoisomerase 2alpha assessed as reduction in kDNA decatenation at 100 uM incubated for 30 mins by DNA gel electrophoresis
Chain of DNA topoisomerase 2-alpha (Homo sapiens) (P11388 whole entry): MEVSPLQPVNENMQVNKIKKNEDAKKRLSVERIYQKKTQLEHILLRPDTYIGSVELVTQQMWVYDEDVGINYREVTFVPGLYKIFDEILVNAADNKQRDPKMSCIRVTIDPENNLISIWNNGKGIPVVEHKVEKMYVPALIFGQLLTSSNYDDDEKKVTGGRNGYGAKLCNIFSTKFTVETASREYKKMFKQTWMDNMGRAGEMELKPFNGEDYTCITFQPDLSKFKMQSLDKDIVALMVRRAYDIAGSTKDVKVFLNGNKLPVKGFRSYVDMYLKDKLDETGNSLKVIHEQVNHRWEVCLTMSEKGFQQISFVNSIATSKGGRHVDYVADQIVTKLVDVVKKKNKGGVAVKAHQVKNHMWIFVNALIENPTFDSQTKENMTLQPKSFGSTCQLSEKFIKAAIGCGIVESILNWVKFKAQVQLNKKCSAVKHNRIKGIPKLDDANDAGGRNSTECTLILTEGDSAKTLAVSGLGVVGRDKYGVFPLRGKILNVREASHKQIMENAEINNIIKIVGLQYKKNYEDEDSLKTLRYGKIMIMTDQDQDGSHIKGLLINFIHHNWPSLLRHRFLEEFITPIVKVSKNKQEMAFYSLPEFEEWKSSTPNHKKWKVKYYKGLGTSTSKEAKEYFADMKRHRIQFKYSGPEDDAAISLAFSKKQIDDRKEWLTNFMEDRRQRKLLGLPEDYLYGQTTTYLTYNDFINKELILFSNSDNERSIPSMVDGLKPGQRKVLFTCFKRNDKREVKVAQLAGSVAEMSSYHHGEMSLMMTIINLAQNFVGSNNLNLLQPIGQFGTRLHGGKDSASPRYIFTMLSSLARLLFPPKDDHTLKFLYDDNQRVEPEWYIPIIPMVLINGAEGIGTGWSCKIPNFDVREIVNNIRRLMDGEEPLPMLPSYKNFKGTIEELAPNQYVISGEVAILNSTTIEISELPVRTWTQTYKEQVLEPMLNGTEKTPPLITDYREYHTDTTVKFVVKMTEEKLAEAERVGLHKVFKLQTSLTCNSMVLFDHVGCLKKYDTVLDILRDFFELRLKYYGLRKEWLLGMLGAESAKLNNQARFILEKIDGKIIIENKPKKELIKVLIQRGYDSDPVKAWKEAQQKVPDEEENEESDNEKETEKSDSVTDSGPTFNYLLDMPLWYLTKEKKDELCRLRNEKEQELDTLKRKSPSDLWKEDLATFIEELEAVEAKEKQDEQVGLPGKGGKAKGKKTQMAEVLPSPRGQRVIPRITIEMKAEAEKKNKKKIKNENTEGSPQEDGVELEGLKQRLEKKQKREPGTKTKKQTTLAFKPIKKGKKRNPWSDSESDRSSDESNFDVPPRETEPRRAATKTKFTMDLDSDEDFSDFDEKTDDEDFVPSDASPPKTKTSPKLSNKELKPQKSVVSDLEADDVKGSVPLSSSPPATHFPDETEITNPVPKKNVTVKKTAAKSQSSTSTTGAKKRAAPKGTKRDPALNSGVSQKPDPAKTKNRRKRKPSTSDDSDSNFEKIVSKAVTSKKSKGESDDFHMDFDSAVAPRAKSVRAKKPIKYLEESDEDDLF

[4] = biological target: DNA topoisomerase 2-alpha (Homo sapiens) (UniProt P11388); assay: Inhibition of human recombinant topoisomerase 2alpha assessed as reduction in pBR322 DNA relaxation at 100 uM incubated for 30 mins by DNA gel electrophoresis
MDA-MB-231 [5] = assay: Increase in histone H3 Ser10 phosphorylation in human MDA-MB-231 cells at 10 uM after 24 hrs by Western blot method; format: functional, cell-based
MDA-MB-231 [6] = assay: Induction of DNA damage in human MDA-MB-231 cells assessed as increase in ATM S1981 phosphorylation at 10 uM after 24 hrs by Western blot method; format: functional, cell-based
MDA-MB-231 [7] = assay: Antitumor activity against human MDA-MB-231 cells xenografted in BALB/c-nu mouse assessed as reduction in tumor weight at 20 mg/kg, iv dosed every other day for 15 days; format: functional; details: MDA-MB-231, 360 h
Mus musculus = assay: Toxicity in nude BALB/c mouse xenografted with human MDA-MB-231 cells assessed as reduction in body weight at 20 mg/kg, iv dosed every other day for 15 days (reference value: 24.2 g); format: organism-based; set-up: dose 20 mg/kg, route intravenous; details: in vivo, 360 h
[8] = biological target: DNA topoisomerase 2-alpha (Homo sapiens) (UniProt P11388); details: 100 uM
Description: Inhibition of human recombinant topoisomerase 2alpha assessed as increase in linear DNA using circular supercoiled plasmid DNA substrate at 100 uM incubated for 30 mins by ethidium bromide staining based DNA gel electrophoresis

Nucleic Acid = assay: Induction of DNA intercalation in Escherichia coli pBR322 DNA at 100 uM by DNA gel electrophoresis; format: nucleic-acid assay

Compound | IC50 (MDA-MB-231 [1]) [µM] | IC50 (A549) [µM] | IC50 (HeLa) [µM] | further results
COc1ccc2cc(-c3ccc(OC)c(C=O)c3)ccc2c1 | > 800 | > 20 | > 20 | –
CC(O)c1ccc(-c2ccc3cc(O)ccc3c2)cc1 (stereo unspecified) | 7.6 | 19.9 | 3.4 | –
COc1ccc2cc(-c3ccc(C(F)(F)F)cc3)ccc2c1 | 54.9 | > 20 | > 20 | –
CC[C@@]1(O)C(=O)OCc2c1cc1n(c2=O)Cc2cc3ccccc3nc2-1 | – | – | – | inhibition [2]: Active
COc1ccc2cc(-c3ccc(OC)c(OC)c3)ccc2c1 | 112 | > 20 | > 20 | –
COc1ccc2cc(-c3cc(C(C)=O)c(O)c([N+](=O)[O-])c3)ccc2c1 | 19.8 | > 20 | > 20 | inhibition [3]: Active
COC(=O)Cc1cc(-c2ccc3cc(O)ccc3c2)ccc1O | 98 | – | – | –
COc1ccc2cc(-c3cc(C=O)c(O)c(OC)c3)ccc2c1 | 61.8 | > 20 | > 20 | –
COC(=O)c1ccc(C)c(-c2ccc3cc(O)ccc3c2)c1 | 0.5 | 5 | 1.2 | inhibition [4]: Active; inhibition [3]: Active
O=Cc1ccc(O)c(-c2ccc3cc(O)ccc3c2)c1 | 3.2 | 10.5 | 5 | inhibition [4]: Active; inhibition [3]: Active
OCc1ccc(-c2ccc3cc(O)ccc3c2)cc1 | 29.5 | > 20 | 2.2 | –
COC(=O)c1ccc(-c2ccc3cc(OC)ccc3c2)cc1O | 77.3 | > 20 | > 20 | –
Cc1cc(-c2ccc3cc(O)ccc3c2)ccc1N | 2.1 | 3.5 | 2.9 | inhibition [4]: Active; inhibition [3]: Active
COC(=O)c1ccc(-c2ccc3cc(OC)ccc3c2)cc1 | > 800 | > 20 | > 20 | –
O=C(O)Cc1cc(-c2ccc3cc(O)ccc3c2)ccc1O | > 800 | > 20 | > 20 | –
Cc1ccc(C(=O)O)c(-c2ccc3cc(O)ccc3c2)c1 | 94.3 | > 20 | > 20 | inhibition [3]: Active
O=C(O)c1ccc(-c2ccc3cc(O)ccc3c2)cc1O | 8.1 | 15.3 | 5.5 | –
COc1ccc2cc(-c3ccc(OC(C)=O)c(COC(C)=O)c3)ccc2c1 | 81.8 | > 20 | > 20 | –
COC(=O)Cc1cc(-c2ccc3cc(OC)ccc3c2)ccc1O | > 800 | > 20 | > 20 | –
O=[N+]([O-])c1ccc(-c2ccc3cc(O)ccc3c2)cc1C(F)(F)F | 4.5 | 3.5 | 1.9 | inhibition [4]: Active; inhibition [3]: Active
COc1ccc2cc(-c3cccc(CO)c3)ccc2c1 | 19.9 | > 20 | 20 | –
COc1cc([C@@H]2c3cc4c(cc3[C@@H](O[C@@H]3O[C@@H]5CO[C@@H](C)O[C@H]5[C@H](O)[C@H]3O)[C@H]3COC(=O)[C@H]23)OCO4)cc(OC)c1O [ETOPOSIDE] | 3.67 | 13.8 | 4.36 | inhibition [4]: Active; Activity (MDA-MB-231 [5]): inactive; Activity (MDA-MB-231 [6]): Active; inhibition in vivo at 20 mg/kg (MDA-MB-231 [7]): 69%; Activity (Mus musculus): 20.1 g; inhibition [8]: Active
Nc1ccc(-c2ccc3cc(O)ccc3c2)cc1 | 18.2 | 19.8 | 3.1 | –
COc1ccc2cc(-c3ccc(O)cc3)ccc2c1 | > 800 | > 20 | > 20 | –
COc1ccc2cc(-c3ccc(O)c(C(=O)O)c3)ccc2c1 | 93.3 | > 20 | > 20 | –

Compound | IC50 (MDA-MB-231 [1]) [µM] | IC50 (A549) [µM] | IC50 (HeLa) [µM] | further results
COc1ccc2cc(-c3cccc(C(F)(F)F)c3)ccc2c1 | 455 | > 20 | > 20 | –
COc1ccc2cc(-c3cc(C=O)ccc3O)ccc2c1 | 25.3 | 14.1 | > 20 | –
COC(=O)c1ccc(C)c(-c2ccc3cc(OC)ccc3c2)c1 | > 800 | > 20 | 20 | inhibition [3]: Active
COc1ccc2cc(-c3ccc(CO)cc3)ccc2c1 | 152 | 7.9 | 9.1 | –
O=Cc1cc(-c2ccc3cc(O)ccc3c2)ccc1O | 2.4 | 5 | 2.1 | inhibition [2]: Active; inhibition [4]: Active; inhibition [3]: Active
COC(=O)c1ccc(O)c(-c2ccc3cc(OC)ccc3c2)c1 | 36.5 | > 20 | > 20 | –
COC(=O)C(O)c1ccc(-c2ccc3cc(OC)ccc3c2)cc1 (stereo unspecified) | 24.2 | > 20 | > 20 | –
Oc1ccc(-c2ccc3cc(O)ccc3c2)cc1 | 10.5 | 11.4 | 3.1 | –
COC(=O)Cc1ccc(-c2ccc3cc(OC)ccc3c2)cc1 | 695 | > 20 | > 20 | –
COc1ccc2cc(-c3ccc(CCO)c(O)c3)ccc2c1 | 92 | > 20 | > 20 | –
OCc1cccc(-c2ccc3cc(O)ccc3c2)c1 | 5 | 9.1 | 3.2 | –
COc1ccc2cc(-c3ccc(N)c(C)c3)ccc2c1 | > 800 | > 20 | > 20 | –
OCCc1cc(-c2ccc3cc(O)ccc3c2)ccc1O | 0.4 | 0.6 | 0.6 | inhibition [2]: inactive; inhibition [4]: inactive; inhibition [3]: Active
COC(=O)c1ccc(O)c(-c2ccc3cc(O)ccc3c2)c1 | 7.6 | 11.6 | 2.2 | inhibition [4]: Active
O=C(O)c1cc(-c2ccc3cc(O)ccc3c2)ccc1O | 31.5 | > 20 | > 20 | –
COc1ccc(-c2ccc3cc(O)ccc3c2)cc1OC | 16.8 | 20 | 4.8 | –
COc1ccc2cc(-c3ccc(CC(=O)O)cc3)ccc2c1 | 272 | > 20 | > 20 | –
COc1ccc2cc(-c3ccc(N)cc3)ccc2c1 | 168 | > 20 | > 20 | –
COc1ccc2cc(-c3ccc(C(C)O)cc3)ccc2c1 (stereo unspecified) | 69.8 | > 20 | > 20 | –
Oc1ccc2cc(-c3ccc(O)c(O)c3)ccc2c1 | 4.3 | 11.5 | 4.6 | inhibition [4]: Active; inhibition [3]: Active
COc1cccc2c1C(=O)c1c(O)c3c(c(O)c1C2=O)C[C@@](O)(C(=O)CO)C[C@@H]3O[C@H]1C[C@H](N)[C@H](O)[C@H](C)O1 | – | – | – | Activity (Nucleic Acid): Active
CC(=O)c1cc(-c2ccc3cc(O)ccc3c2)cc([N+](=O)[O-])c1O | 1.4 | 4.2 | 2.1 | inhibition [2]: Active; inhibition [4]: Active; inhibition [3]: Active
COc1cc(-c2ccc3cc(O)ccc3c2)cc(C=O)c1O | 0.5 | 1.1 | 1.8 | inhibition [2]: Active; inhibition [4]: Active; inhibition [3]: Active
COC(=O)c1cc(-c2ccc3cc(OC)ccc3c2)ccc1O | 82.2 | > 20 | > 20 | –
COc1ccc2cc(-c3ccc([N+](=O)[O-])c(C(F)(F)F)c3)ccc2c1 | 165 | > 20 | > 20 | –
